Patent publication US8785638B2, “Thieno [2, 3-B] pyridine derivatives as viral replication inhibitors” (Katholieke Universiteit Leuven, priority 2009, dated 2014)
Where two headings read alike, the source gives them in different places.

Legend:
[1] = target: LEDGF/p75-HIV-1 integrase interaction (Human immunodeficiency virus type 1 group M subtype B (isolate HXB2) (HIV-1), UniProt P04585); test: AlphaScreen assay of LEDGF-integrase interaction inhibition; format: binding
Experimental: Alphascreen Assay to Measure the LEDGF-Integrase Interaction Inhibitory Activity of Compounds of the Invention
The AlphaScreen assay was performed according to the manufacturer's protocol (Perkin Elmer, Benelux). Reactions were performed in 25 μl final volume in 384-well Optiwell™ microtiter plates (Perkin Elmer). The reaction buffer contained 25 mM Tris-HCl (pH 7.4), 150 mM NaCl, 1 mM MgCl2, 0.01% (v/v) Tween-20 and 0.1% (w/v) bovine serum albumin. His6-tagged integrase (300 nM final concentration) was incubated with the compounds for 30 min at 4° C. The compounds were added at varying concentrations spanning a wide range from 0.1 up to 100 μM. Afterwards 100 nM flag-LEDGF/p75 was added and incubation was prolonged for an additional hour at 4° C. Subsequently 5 μl of Ni-chelate-coated acceptor beads and 5 μl anti-flag donor beads were added to a final concentration of 20 μg/ml of both beads. Proteins and beads were incubated for 1 h at 30° C. in order to allow association to occur. Exposure of the reaction to direct light was omitted as much as possible and the emission of light from the acceptor beads was measured in the EnVision plate reader (Perkin Elmer, Benelux) and analyzed using the EnVision manager software. IN/DNA binding was analyzed in a similar setting using His6-tagged integrase (1 μM final concentration) and an oligodeoxynucleotide mimicking the IN ELISA oligonucleotide substrate (30 nM final concentration). Counterscreens with JPO2 or PogZ, respectively, were essentially performed as described previously.
His6-tagged HIV-1 integrase, 3xflag-tagged LEDGF/p75, MBP-JPO2 and MBP-PogZ were purified for AlphaScreen applications as described previously 23,25,56.

[2] = Cytotoxicity in mock-infected MT-4 cells (MTT); format: cell-based; details: human, 50% cytotoxic concentration
Experimental: (§1) A rapid and automated assay procedure was used for the in vitro evaluation of anti-HIV agents. An HTLV-1 transformed T4-cell line MT-4, which was previously shown to be highly susceptible to and permissive for HIV infection, served as the target cell line. Inhibition of the HIV-induced cytopathogenic effect was used as the end point. The viabitlity of both HIV- and mock-infected cells was assessed spectrophotometrically via in situ reduction of 3-(4,5-dimethylthiazol-2-yl)-2,5-diphenyltetrazolium bromide (MTT). The 50% cytotoxic concentration (CC50 in μM or μg/ml) was defined as the concentration of compound that reduced the absorbance of the mock-infected control sample by 50%. The percent protection achieved by the compound in HIV-infected cells was calculated by the following formula:
(§2) [formula] whereby (ODT)HIV is the optical density measured with a given concentration of the test compound in HIV-infected cells; (ODC)HIV is the optical density measured for the control untreated HIV-infected cells; (ODC)MOCK is the optical density measured for the control untreated mock-infected cells; all optical density values were determined at 540 nm. The dose achieving 50% protection according to the above formula was defined as the 50% inhibitory concentration (EC50 in μM or μg/ml). The ratio of CC50 to EC50 was defined as the selectivity index (SI). […] Examples of inhibition of cell proliferation by particular compounds of the invention can be found by looking at the respective CC50 values in the MT-4 cell line. Cells:
(§3) MT-4 cells (Miyoshi et al., 1982) were grown and maintained in RPMI 1640 medium supplemented with 10% heat-inactivated fetal calf serum, 2 mM I-glutamine, 0.1% sodium bicarbonate, and 20 μg of gentamicin per ml. Alternatively, the MT-4 cells may also be grown in RPMI 1640 medium supplemented with 10% FCS and 20 μg/ml of gentamicin (RPMI-complete).

[3] = system: HIV-1 (IIIB), HIV-1 (NL4.3); test: microbe, parasite or virus in culture; format: cell-based; details: for EC50: Human immunodeficiency virus 1, IIIB, MT4, MT-4 cells, 50% protection against HIV-induced cytopathogenic effect, MTT; for SI: selectivity index, ratio of CC50 to EC50
Experimental: as §1, §2, §3
The HIV-1 (IIIB) strain (Popovic et al., 1984) as well as the HIV-1 (NL4.3) strain (Adachi et al., J. Virol. 59, 284-291 (1986)) were used.

[4] = His6-tagged integrase 300 nM, flag-LEDGF/p75 100 nM, read-out: Alphascreen IC50

SMILES | IC50 [1, 4] [µM] | CC50 [2] [µM] | EC50 [3] [µM] | SI [3] | IC50 [1] [µM]
CCCC(C(=O)O)c1c(C)nc2sc(C)c(CC)c2c1-c1ccc(C)cc1 (stereo not drawn) [Cpd 109, 2-(3-Ethyl-2,6-dimethyl-4-p-tolylthieno[2,3-b]pyridin-5-yl)pentanoic acid] | 6.81 | 57.9 | 2.22 | 26 | –
CCCC(C(=O)O)c1c(C)nc2sc3c(c2c1-c1ccc(C)cc1)CCCC3 (stereo not drawn) [Cpd 113, 2-[2-Methyl-4-p-tolyl-5,6,7,8-tetrahydro[1]benzothieno[2,3-b]pyridin-3-yl]pentanoic acid] | 0.75 | 80.6 | 0.44 | 183 | –
CCCC(c1nnn[nH]1)c1c(C)nc2sc3c(c2c1-c1ccc(C)cc1)CCCC3 (stereo not drawn) [Cpd 175, 2-Methyl-4-(p-tolyl)-3-[1-(1H-tetrazol-5-yl)butyl]-5,6,7,8-tetrahydro[1]benzothieno[2,3-b]pyridine] | < 1 | 79.2 | 8.89 | 9 | –
CCc1sc2nc(C)c(CC(=O)O)c(-c3ccc(C)cc3)c2c1C [Cpd 105, (2-Ethyl-3,6-dimethyl-4-p-tolylthieno[2,3-b]pyridin-5-yl)acetic acid] | 64.3 | 62.7 | > 62.7 | – | –
Cc1ccc(-c2c(C(C(=O)O)C(C)C)c(C)nc3sc4c(c23)CCCC4)cc1 (stereo not drawn) [Cpd 156, 2-[2-Methyl-4-(p-tolyl)-5,6,7,8-tetrahydro[1]benzothieno[2,3-b]pyridin-3-yl]-3-methylbutanoic acid] | 59.6 | 98 | > 98 | – | –
CCCC(C(=O)O)c1c(C)nc2sc3c(c2c1-c1ccc(OC)cc1)CCC3 (stereo not drawn) [Cpd 131, 2-[2-Methyl-4-(p-anisyl)-6,7-dihydro-5H-cyclopenta[4,5]thieno[2,3-b]pyridin-3-yl]pentanoic acid] | – | 127 | 2.43 | 52 | 4.54
CCCC(C(=O)O)c1c(C)nc2sc3c(c2c1-c1ccc(C)cc1)CCC3 (stereo not drawn) [Cpd 100, 2-[2-Methyl-4-p-tolyl-6,7-dihydro-5H-cyclopenta[4,5]thieno[2,3-b]pyridin-3-yl]pentanoic acid] | 6.61 | 121 | 1.69 | 72 | –
CCCC(C(=O)O)c1c(C)nc2sc3c(c2c1-c1ccc(Cl)cc1)CCCC3 (stereo not drawn) [Cpd 148, 2-[2-Methyl-4-(4-chlorophenyl)-5,6,7,8-tetrahydro[1]benzothieno[2,3-b]pyridin-3-yl]pentanoic acid] | 2.19 | 70 | 0.53 | 132 | –
CCCC(C(=O)O)c1c(C)nc2sc3c(c2c1-c1ccc(C)cc1OC)CCCC3 (stereo not drawn) [Cpd 160, 2-[2-methyl-4-(2-methoxy-4-methylphenyl)-5,6,7,8-tetrahydro[1]benzothieno[2,3-b]pyridin-3-yl]pentanoic acid] | 17.7 | 74 | 14.4 | 5 | –
CCCC(C(=O)O)c1c(C)nc2sc3c(c2c1-c1ccc(C)cc1)CCC3C (stereo not drawn) [Cpd 128, 2-[2-methyl-7-methyl-4-p-tolyl-6,7-dihydro-5H-cyclopenta[4,5]thieno[2,3-b]pyridin-3-yl]pentanoic acid] | 11.3 | 121 | 4.07 | 30 | –
CCOC(C(=O)O)c1c(C)nc2sc3c(c2c1-c1ccc(C)cc1)CCCC3 (stereo not drawn) [Cpd 171, 2-[2-Methyl-4-p-tolyl-5,6,7,8-tetrahydro[1]benzothieno[2,3-b]pyridin-3-yl]-2-ethoxyacetic acid] | 1.21 | 130 | 0.112 | 1166 | –
Cc1nc2sc3c(c2c(-c2cnn(C)c2)c1C(OC(C)(C)C)C(=O)O)CCCC3 (stereo not drawn) [Cpd 177, 2-[2-methyl-4-(1-methyl-1H-pyrazol-4-yl)-5,6,7,8-tetrahydro[1]benzothieno[2,3-b]pyridin-3-yl]-2-tert-butoxyacetic acid] | 11.7 | > 212 | 1.17 | >181 | –
Cc1nc2sc3c(c2c(-c2cccnc2)c1C(OC(C)(C)C)C(=O)O)CCCC3 (stereo not drawn) [Cpd 173, 2-[2-Methyl-4-(pyridin-3-yl)-5,6,7,8-tetrahydro[1]benzothieno[2,3-b]pyridin-3-yl]-2-tert-butoxyacetic acid] | 5.9 | 225 | 4.51 | 50 | –
CCCC(C(=O)O)c1c(C)nc2sc3c(c2c1-c1cc2ccccc2o1)CCCC3 (stereo not drawn) [Cpd 154, 2-[2-Methyl-4-(benzofuran-2-yl)-5,6,7,8-tetrahydro[1]benzothieno[2,3-b]pyridin-3-yl]pentanoic acid] | 8.12 | 90.5 | 6.28 | 14 | –
CCCC(C(=O)O)c1c(C)nc2sc3c(c2c1-c1ccc2c(c1)OCO2)CCCC3 (stereo not drawn) [Cpd 146, 2-[2-Methyl-4-(benzo[d][1,3]dioxol-5-yl)-5,6,7,8-tetrahydro[1]benzothieno[2,3-b]pyridin-3-yl]pentanoic acid] | 4.76 | 124 | 2.98 | 42 | –
C=C(C(=O)O)c1c(C)nc2sc3c(c2c1-c1ccc(C)cc1)CCC3 [Cpd 124, 2-[2-methyl-4-p-tolyl-6,7-dihydro-5H-cyclopenta[4,5]thieno[2,3-b]pyridin-3-yl]acrylic acid] | 41 | 117 | > 117 | – | –
CCCC(C(=O)O)c1c(CC)nc2sc3c(c2c1-c1ccc(C)cc1)CCCC3 (stereo not drawn) [Cpd 181, 2-[2-ethyl-4-(p-tolyl)-5,6,7,8-tetrahydro[1]benzothieno[2,3-b]pyridin-3-yl]pentanoic acid] | 8.06 | 81 | 2.89 | 28 | –
CCCC(C(=O)O)c1c(C)nc2sc3c(c2c1-c1ccc(C)cc1)CC(C)C3 (stereo not drawn) [Cpd 127, 2-[2-methyl-6-methyl-4-p-tolyl-6,7-dihydro-5H-cyclopenta[4,5]thieno[2,3-b]pyridin-3-yl]pentanoic acid] | 2.85 | 82.9 | 0.79 | 105 | –
Cc1ccc(-c2c(C(CCC(F)(F)F)C(=O)O)c(C)nc3sc4c(c23)CCCC4)cc1 (stereo not drawn) [Cpd 158, 2-[2-Methyl-4-(p-tolyl)-5,6,7,8-tetrahydro[1]benzothieno[2,3-b]pyridin-3-yl]-5,5,5-trifluoropentanoic acid] | 13.5 | 58.5 | 5.48 | 11 | –
CCC[C@H](C(=O)O)c1c(C)nc2sc3c(c2c1-c1ccc(C)cc1)CCCC3 [Cpd 114, (2S)-[2-Methyl-4-p-tolyl-5,6,7,8-tetrahydro[1]benzothieno[2,3-b]pyridin-3-yl]pentanoic acid] | < 1 | 126 | 0.58 | 217 | –
CCCC(C(=O)O)c1c(C)nc2sc3c(c2c1-c1ccc(CC)cc1)CCC3 (stereo not drawn) [Cpd 117, 2-[2-Methyl-4-(4-ethylphenyl)-6,7-dihydro-5H-cyclopenta[4,5]thieno[2,3-b]pyridin-3-yl]pentanoic acid] | 0.78 | 54.3 | 0.53 | 107 | –
CCCC(C(=O)O)c1c(C)nc2sc(CC)c(C)c2c1-c1ccc(C)cc1 (stereo not drawn) [Cpd 111, 2-(2-Ethyl-3,6-dimethyl-4-p-tolylthieno[2,3-b]pyridin-5-yl)pentanoic acid] | – | 54.4 | 1.28 | 43 | –
